Laboratory results from patent US6685617B1, “Inhibitors of α4β1 mediated cell adhesion” (Pharmacia & Upjohn Company, priority 1998, dated 2004).

What follows are molecules tested against T1, α4β1 integrin (Jurkat T-cell adhesion to IL-1 stimulated endothelial cell monolayers) (Homo sapiens, UniProt P05556+P13612) (assay: Jurkat-endothelial cell adhesion assay (Jurkat EC)). Settings: Jurkat cells on IL-1 stimulated human umbilical vein endothelial cells; read-out: JK/EC (Jurkat EC Assay IC50 value range).
T1 construct: a T-cell line, Jurkat, known to express the α4β1 integrin; host or cells: Jurkat T-cell line
Assay type: cell-based
Experimental: Jurkat-endothelial Cell Adhesion Assay:
The following assay established the activity of the present compounds in inhibiting β1-mediated cell adhesion in a representative in vitro system. This assay measures the adhesive interactions of a T-cell line, Jurkat, known to express the α4β1 integrin, to endothelial monolayers in the presence of test compounds. The test compounds were added in increasing concentrations to T-cells and then the T-cell compound mixture was added to IL-1 stimulated endothelial cell monolayers. The plates were incubated, washed and the percentage of attached cells was quantitated.
Human umbilical vein endothelial cells were purchased from Clonetics (San Diego, Calif.) at passage number 2. The cells were grown on 0.5% porcine skin gelatin pre-coated flasks (Sigma, St. Louis Mo.) in EGM-UV media (Clonetics, San Diego, Calif.) supplemented with 10% fetal bovine serum. Cells are refed every 2-3 days reaching confluence by day 4 to 6. […] The endothelial cells are not used following passage 6.
The T-cell line Jurkat was obtained from American Type Tissue Culture Collection (Rockville, Md.) and the cells were cultured in RPMI containing 10% fetal calf serum. The cells were washed twice in Hank's Balanced Salt Solution (HBSS) and resuspended in Dulbecco's Minimal Eagle's Media (DMEM) containing 2.5 mg/ml Human Serum Albumin (HSA). Jurkat cells (1×10^6 cells/ml) were stained with 10 ng/ml BCECF-AM (Molecular Probes, Eugene, Oreg.)) in HBSS without phenol red. The cells were loaded with BCECF for 60 minutes in the dark at 370C, washed 2 times, and resuspended in DMEM-HSA solution.
Confluent endothelial monolayers, grown in 96-well tissue culture plates, were stimulated for 4 hr. at 37° C. with 0.1 ng/ml (˜50 U/ml) recombinant IL-1 (Amgen, Thousand Oaks, Calif.). Following this incubation, the monolayers were washed twice with HBSS and 0.1 ml of DMEM−HSA solution was added. Jurkat cells (5×10^5 cells) were combined with the appropriate concentration of the test compound and 0.1 ml of the Jurkat cell-compound mixture was added to the endothelial cell monolayers. Generally, 100, 20, 5 and 1.25 μM compound concentrations were tested. […] The plates were placed on ice for 5 minutes to allow for Jurkat cell settling and the plates were incubated at 37° C. for 20 minutes. Following this incubation, the monolayers were washed twice with PBS containing 1 mM calcium chloride and 1 mM magnesium chloride and the plates were read using a Millipore Cytofluor 2300 (Marlboro, Mass.). Fluorescence in each well was measured as Arbitrary Fluorescence Units and percent adhesion in the absence of compound was adjusted to 100% and the % adhesion in the presence of compound was calculated. Monolayers were also fixed in 3% paraformaldehyde and evaluated microscopically to verify the adhesion. This procedure is a modification of a previously published method (Cardarelli et al., J. Biol. Chem. 269:18668-18673 (1994)).

T1 sequence (P13612 34-1032): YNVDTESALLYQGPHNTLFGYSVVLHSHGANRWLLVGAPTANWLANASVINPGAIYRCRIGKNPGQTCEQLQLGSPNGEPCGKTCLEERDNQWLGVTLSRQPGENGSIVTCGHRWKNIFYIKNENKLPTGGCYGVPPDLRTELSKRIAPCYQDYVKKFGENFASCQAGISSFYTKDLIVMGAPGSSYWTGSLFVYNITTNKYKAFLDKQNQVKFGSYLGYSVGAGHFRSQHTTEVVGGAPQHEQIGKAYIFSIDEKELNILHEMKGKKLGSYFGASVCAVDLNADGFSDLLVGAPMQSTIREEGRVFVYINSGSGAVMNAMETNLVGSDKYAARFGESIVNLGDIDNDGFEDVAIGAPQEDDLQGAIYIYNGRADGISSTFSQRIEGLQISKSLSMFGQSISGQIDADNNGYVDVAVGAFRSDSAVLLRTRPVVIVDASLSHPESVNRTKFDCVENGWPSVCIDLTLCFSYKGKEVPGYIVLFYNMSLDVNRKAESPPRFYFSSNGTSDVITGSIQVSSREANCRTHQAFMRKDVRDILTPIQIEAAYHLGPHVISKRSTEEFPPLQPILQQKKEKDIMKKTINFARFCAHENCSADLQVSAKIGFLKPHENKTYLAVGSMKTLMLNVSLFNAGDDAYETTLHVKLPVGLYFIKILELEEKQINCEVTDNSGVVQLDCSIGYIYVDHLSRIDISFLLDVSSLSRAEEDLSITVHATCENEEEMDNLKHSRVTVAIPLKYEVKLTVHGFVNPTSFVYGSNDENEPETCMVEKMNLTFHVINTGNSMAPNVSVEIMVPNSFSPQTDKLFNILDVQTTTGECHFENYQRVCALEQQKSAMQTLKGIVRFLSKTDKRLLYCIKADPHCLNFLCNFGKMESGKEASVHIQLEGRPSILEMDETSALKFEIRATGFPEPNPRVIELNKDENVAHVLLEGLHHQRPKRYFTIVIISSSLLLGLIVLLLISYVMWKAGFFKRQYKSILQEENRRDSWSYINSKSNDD
T1 sequence (P05556 21-798): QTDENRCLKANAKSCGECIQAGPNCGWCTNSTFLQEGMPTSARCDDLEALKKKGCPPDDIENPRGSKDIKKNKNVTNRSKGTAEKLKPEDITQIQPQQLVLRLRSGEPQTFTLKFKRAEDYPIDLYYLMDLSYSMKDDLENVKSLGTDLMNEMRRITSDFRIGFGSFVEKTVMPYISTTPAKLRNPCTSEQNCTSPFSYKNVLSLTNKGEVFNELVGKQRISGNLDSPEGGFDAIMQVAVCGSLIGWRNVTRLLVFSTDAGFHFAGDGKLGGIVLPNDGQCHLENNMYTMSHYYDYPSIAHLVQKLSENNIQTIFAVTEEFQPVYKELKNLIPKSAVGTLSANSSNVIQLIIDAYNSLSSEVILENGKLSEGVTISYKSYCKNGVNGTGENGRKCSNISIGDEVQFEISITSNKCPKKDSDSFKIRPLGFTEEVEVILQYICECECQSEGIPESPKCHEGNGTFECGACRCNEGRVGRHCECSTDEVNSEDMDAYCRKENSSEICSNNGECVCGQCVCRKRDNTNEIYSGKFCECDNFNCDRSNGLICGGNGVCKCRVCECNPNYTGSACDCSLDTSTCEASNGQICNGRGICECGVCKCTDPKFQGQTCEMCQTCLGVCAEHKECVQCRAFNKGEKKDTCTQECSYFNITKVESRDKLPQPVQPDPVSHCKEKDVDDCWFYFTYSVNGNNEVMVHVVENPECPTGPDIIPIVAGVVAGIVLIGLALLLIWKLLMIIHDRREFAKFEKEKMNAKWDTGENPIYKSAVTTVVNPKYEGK

Row | Structure (SMILES) | IC50 [nM]
1 | O=C(O)c1cccc(C(=O)N2CCCC(C(=O)N[C@@H](Cc3ccc(NC(=O)c4c(Cl)cccc4Cl)cc3)C(=O)O)C2)c1 (stereo partly shown) [Example 205] | 250 to 1000
2 | O=C(C[C@@H]1CC[C@H](C(=O)O)N1Cc1ccccc1)N[C@@H](Cc1ccc(OCc2c(Cl)cccc2Cl)cc1)C(=O)O [Example 95, (5S)-5-[2-[[(1S)-1-Carboxy-2-[4-[(2,6-dichlorophenyl)methoxy]phenyl]ethyl]amino]-2-oxoethyl]-1-(phenylmethyl)-D-proline] | ≥ 1000
3 | COC(=O)[C@H](Cc1ccc(NC(=O)c2c(Cl)cccc2Cl)cc1)NC(=O)C1CCCCN1C(=O)CC1(CC(=O)O)CCCC1 (stereo partly shown) [Example 164] | ≥ 1000
4 | CC(=O)CCC(=O)N1CCCC[C@H]1C(=O)N[C@@H](Cc1ccc(NC(=O)c2c(Cl)cccc2Cl)cc1)C(=O)O [Example 179] | 250 to 1000
5 | CCOC(=O)N1CSC[C@@H]1C(=O)N[C@@H](Cc1ccc(OCc2c(Cl)cccc2Cl)cc1)C(N)=O (relative stereo) [Example 90, [S-(R*,R*)]-4-[[[1-[[4-[(2,6-Dichlorophenyl)methoxy]phenyl]methyl]-2-amino-2-oxoethyl]amino]carbonyl]-3-thiazolidinecarboxylic Acid 3-Ethyl Ester] | ≥ 1000
6 | CC(C)(CC(=O)O)CC(=O)N1CCC(C(=O)N[C@@H](Cc2ccc(NC(=O)c3c(Cl)cccc3Cl)cc2)C(=O)O)CC1 [Example 211] | ≥ 1000
7 | O=C(O)/C=C\C(=O)N1CCCCC1C(=O)N[C@@H](Cc1ccc(NC(=O)c2c(Cl)cccc2Cl)cc1)C(=O)O (stereo partly shown) [Example 170] | ≥ 1000
8 | COc1ccc(C(=O)N2CCCC[C@H]2C(=O)N[C@@H](Cc2ccc(NC(=O)c3c(Cl)cccc3Cl)cc2)C(=O)O)cc1OC [Example 180] | ≥ 1000
9 | COC(=O)[C@H](Cc1ccc(NC(=O)c2c(Cl)cccc2Cl)cc1)NC(=O)C1CCCCN1C(=O)/C=C\C(=O)O (stereo partly shown) [Example 166] | ≥ 1000
10 | O=C(O)CC1(CC(=O)N2CCC(C(=O)N[C@@H](Cc3ccc(NC(=O)c4c(Cl)cccc4Cl)cc3)C(=O)O)CC2)CCCC1 [Example 210] | ≥ 1000
11 | O=C(C[C@H]1CC[C@@H](C(=O)O)N1Cc1ccccc1)N[C@@H](Cc1ccc(OCc2c(Cl)cccc2Cl)cc1)C(=O)O [Example 94, (5R)-5-[2-[[(1S)-1-Carboxy-2-[4-[(2,6-dichlorophenyl)methoxy]phenyl]ethyl]amino]-2-oxoethyl]-1-(phenylmethyl)-L-proline] | ≥ 1000
12 | O=C(O)CCC(=O)N1CCCC(C(=O)N[C@@H](Cc2ccc(NC(=O)c3c(Cl)cccc3Cl)cc2)C(=O)O)C1 (stereo partly drawn) [Example 174, 3-[[[(1S)-1-Carboxy-2-[4-[(2,6-dichlorobenzoyl)amino]phenyl]ethyl]amino]carbonyl]-γ-oxo-1-piperidinebutanoic Acid] | 250 to 1000
13 | COC(=O)CCC1(CCC(=O)N[C@@H](Cc2ccc(NC(=O)c3c(Cl)cccc3Cl)cc2)C(=O)OC)CCC(=O)N1C (stereo partly drawn) [Example 110, 2-[3-[[(1S)-1-[[4-[(2,6-Dichlorobenzoyl)amino]phenyl]methyl]-2-methoxy-2-oxoethyl]amino]-3-oxopropyl]-1-methyl-5-oxo-2-pyrrolidinepropanoic Acid Methyl Ester] | ≥ 1000
14 | COC(=O)CCC1(CCC(=O)N[C@@H](Cc2ccc(OCc3c(Cl)cccc3Cl)cc2)C(=O)OC)CCC(=O)N1 (stereo partly drawn) [Example 112, 2-[3-[[(1S)-1-[[4-[(2,6-Dichlorophenyl)methoxy]phenyl]methyl]-2-methoxy-2-oxoethyl]amino]-3-oxopropyl]-5-oxo-2-pyrrolidinepropanoic Acid Methyl Ester] | ≥ 1000
15 | O=C(O)CC1(CC(=O)N2CCCCC2C(=O)N[C@@H](Cc2ccc(NC(=O)c3c(Cl)cccc3Cl)cc2)C(=O)O)CCCC1 (stereo partly shown) [Example 168] | ≥ 1000
16 | O=C(O)/C=C/C(=O)N1CCC(C(=O)N[C@@H](Cc2ccc(NC(=O)c3c(Cl)cccc3Cl)cc2)C(=O)O)CC1 [Example 213] | ≥ 1000

Row | Structure (SMILES) | IC50 [nM]
17 | COc1ccc(C(=O)N2CCC(C(=O)N[C@@H](Cc3ccc(NC(=O)c4c(Cl)cccc4Cl)cc3)C(=O)O)CC2)cc1OC [Example 218] | ≥ 1000
18 | COC(=O)[C@H](Cc1ccc(NC(=O)c2c(Cl)cccc2Cl)cc1)NC(=O)C1CCCCN1C(=O)CC(C)(C)CC(=O)O (stereo partly shown) [Example 165] | ≤ 250
19 | O=C(O)/C=C\C(=O)N1CCC(C(=O)N[C@@H](Cc2ccc(NC(=O)c3c(Cl)cccc3Cl)cc2)C(=O)O)CC1 [Example 212] | ≥ 1000
20 | CC(C)(CC(=O)O)CC(=O)N1CCCCC1C(=O)N[C@@H](Cc1ccc(NC(=O)c2c(Cl)cccc2Cl)cc1)C(=O)O (stereo partly shown) [Example 169] | ≥ 1000
21 | O=C(O)c1ccc(NC(=O)N2CCCC(C(=O)N[C@@H](Cc3ccc(NC(=O)c4c(Cl)cccc4Cl)cc3)C(=O)O)C2)cc1 (stereo partly shown) [Example 208] | ≥ 1000
22 | O=C(O)c1ccc(NC(=O)N2CCC(C(=O)N[C@@H](Cc3ccc(NC(=O)c4c(Cl)cccc4Cl)cc3)C(=O)O)CC2)cc1 [Example 175, N-[[1-[[(4-Carboxyphenyl)amino]carbonyl]-4-piperidinyl]carbonyl]-4-[(2,6-dichlorobenzoyl)amino]-L-phenylalanine] | ≥ 1000
23 | O=C(O)c1ccccc1C(=O)N1CCC(C(=O)N[C@@H](Cc2ccc(NC(=O)c3c(Cl)cccc3Cl)cc2)C(=O)O)CC1 [Example 219] | ≥ 1000
24 | COCCC(=O)N1CCC(C(=O)N[C@@H](Cc2ccc(NC(=O)c3c(Cl)cccc3Cl)cc2)C(=O)O)CC1 [Example 214] | ≥ 1000
25 | O=C(O)c1ccc2cc(C(=O)N3CCC(C(=O)N[C@@H](Cc4ccc(NC(=O)c5c(Cl)cccc5Cl)cc4)C(=O)O)CC3)ccc2c1 [Example 221] | ≥ 1000
26 | O=C(O)CNC(=O)N1CCCC(C(=O)N[C@@H](Cc2ccc(NC(=O)c3c(Cl)cccc3Cl)cc2)C(=O)O)C1 (stereo partly shown) [Example 202] | ≥ 1000
27 | O=C(O)c1ccc2cc(C(=O)N3CCCC[C@H]3C(=O)N[C@@H](Cc3ccc(NC(=O)c4c(Cl)cccc4Cl)cc3)C(=O)O)ccc2c1 [Example 183] | ≥ 1000
28 | COC(=O)[C@H](Cc1ccc(NC(=O)c2c(Cl)cccc2Cl)cc1)NC(=O)C1CCCCN1C(=O)CCC(=O)O (stereo partly drawn) [Example 163, 2-[[[(1S)-1-[[4-[(2,6-Dichlorobenzoyl)amino]phenyl]methyl]-2-methoxy-2-oxoethyl]amino]carbonyl]-γ-oxo-1-piperidinebutanoic Acid] | ≥ 1000
29 | O=C(O)CNC(=O)N1CCC(C(=O)N[C@@H](Cc2ccc(NC(=O)c3c(Cl)cccc3Cl)cc2)C(=O)O)CC1 [Example 217] | ≥ 1000
30 | O=C(Nc1ccc(C[C@H](NC(=O)C2CCN(C(=O)C3CCCC(C(=O)O)C3)CC2)C(=O)O)cc1)c1c(Cl)cccc1Cl (stereo partly shown) [Example 215] | ≥ 1000
31 | O=C(O)CCC(=O)N1CCC(C(=O)N[C@@H](Cc2ccc(NC(=O)c3c(Cl)cccc3Cl)cc2)C(=O)O)CC1 [Example 209] | ≥ 1000
